Patent publication US20210276967A1 (OSPEDALE SAN RAFFAELE S.R.L., priority 2018, published 2021)

What was measured:
[1] = tested on: HBV; test: HBV inhibition in HepAD38 cells, extracellular HBV DNA by direct qPCR; type: cell-based, hepatitis B virus; conditions: Hepatitis B virus
Text: HepAD38 cell line (Ladner et al., Antimicrob Agents Chemother, 1997, 41, 1715-20) was used for HBV inhibition assays. HepAD38 is a subclone, derived from hepatoblastoma cell line HepG2 (ATCC® Number: HB-8065™), that expresses HBV genome under the transcriptional control of a tetracycline-responsive promoter in a TET-OFF system: addition of tetracycline (TET) or doxycycline suppresses HBV replication, while its removal switches on the process allowing HBV viral particles release in the cell supernatant. HepAD38 cell line is maintained in DMEM/F12, supplemented with 10% of fetal bovine serum, 1% of glutamine, 1% of penicillin/streptomycin, 0.4 mg/ml G418 and 0.3 ug/ml tetracycline. For the HBV inhibition assay, doxycycline-free medium is used in order to allow virion production.
HBV inhibition activity in vitro was performed in 96 multiwell plates. During the initial (primary) screening compounds were first tested in triplicates at concentrations of 0.1 μM, 0.5 μM and 1 μM. For selected compounds, an 8-point dose-response curve was obtained using 1:2 serial dilutions (starting from 2.5 μM, 1.25 μM or 0.4 μM, depending on the degree of inhibition observed during the primary screening). From the dose-response curves, half maximal effective concentration (EC50) could be calculated (see also below).
In more detail, compounds—typically dissolved in DMSO stock solutions—were diluted to 2× the final desired concentration in 100 μl of the above medium (without doxycycline) and plated in three replicates in the 96-well plates.
Simultaneously, HepAD38 cells—extensively pre-washed in tetracycline-free medium in order to induce HBV production—were suspended at 2*10^4 cells in 100 μl of tetracycline-free medium and added to each well of the plate, to yield a final assay volume of 200 μl.
DMSO, used for stock solutions and compounds dilutions, is always present in the assays at a final concentration of 0.5%.
Plates were then incubated 96 hours at 37° C. and then subjected to cell viability assays and extracellular HBV quantification, in order to evaluate both the cytotoxic potential and the anti-viral activity of compounds.
Cytotoxicity was assessed by a commercial fluorescence assay that measures the metabolic activity of cells, directly related to cell viability (Cell Titer Blue, Promega). For each compound, cytotoxicity was evaluated at the same concentration employed to evaluate its anti-HBV activity. Anti-HBV activity was evaluated by quantification of extracellular HBV DNA with direct qPCR. In particular, supernatant was collected and centrifuged for cell debris clarification, viral DNA was extracted from virions by addition of lysis buffer (1 mM 1,4-dithiothreitol, 0.2% sodium dodecyl sulphate) and incubated at 95° C. for 10 min. Samples were then diluted 1:40 and real time PCR amplification was performed with SYBR green assay (Power SYBR™ Green PCR Master Mix-Thermo Fisher Scientific) and specific HBV primer (HBV-DF:5′-[…]-3′ (SEQ ID No. 1), HBV-DR:5′-[…]-3′ (SEQ ID No. 2)).
All HBV inhibition or antiviral activity data are typically reported in percent (%) relative to a non-treated reference sample. Excel and Graphpad Prism programs are typically used for data elaboration and EC50 calculation.

[2] = Hepatocytes stability, mouse; type: in vitro ADME; conditions: data not shown
[3] = tested on: HBV genotype B; test: Antiviral activity in HepG2 cells transfected with HBV genotype B plasmid, extracellular HBV DNA qPCR; type: cell-based; conditions: Hepatitis B virus, HepG2, read-out: HBV inhibition EC50 (Mean ± StD, μM)
Procedure: (§1) HepG2 hepatoma cells transfected with HBV plasmids corresponding to the different isolates were used to perform antiviral assay against different HBV genotypes. HBV plasmids were obtained by cloning fragment containing of 1.1-mer HBV genome into the SacI/SaII sites of pcDNA3.1zeo(−) plasmid (V86520, Thermofisher Scientific). The HepG2 cell line was maintained in DMEM, supplemented with 10% of FBS, 1% glutamine and 1% penicillin/streptomycin.
(§2) HBV inhibition activity was determined on different HBV genotypes. For this purpose plasmids pcDNA3.1Zeo(−)-HBV1.1 expressing HBV genotypes A, B, C, D, E were transfected in HepG2 cell line and extracellular HBV quantification was performed by direct qPCR as described above. In detail, cells were seeded at 20,000 cells/well in polylisine coated 96-multiwell plates and 24 h later HBV plasmids were transfected with lipofection using manufacturer's procedure (Lipofectamine 3000 Reagent, Thermofisher Scientific). Five hours after transfection cells were extensively washed with PBS and compounds were added in 8-point dose-response curve in 0.5% DMSO as described above. After 4 days of incubation at 37° C. cells were subjected to cell viability assays and extracellular HBV quantification, in order to evaluate both the cytotoxic potential and the anti-viral activity of compounds, as described above. […]

[4] = tested on: HBV genotype D; test: Antiviral activity in HepG2 cells transfected with HBV genotype D plasmid, extracellular HBV DNA qPCR; type: cell-based; conditions: Hepatitis B virus, read-out: HBV inhibition EC50 (Mean ± StD)
Procedure: as §1, §2

Nc1ccc(C(=O)Nc2cc(F)c(F)c(F)c2)cc1S(N)(=O)=O [Example E3, 4-amino-3-sulfamoyl-N-(3,4,5-trifluorophenyl)benzamide]
inhibition at 0.5 µM ([1]; 0.5 μM, HepAD38, 96 hours, read-out: HBV inhibition % (conc μM)): > 50% | stability in mouse hepatocytes [2]: stable

Cc1cc(N)c(S(N)(=O)=O)cc1C(=O)Nc1cc(F)c(F)c(F)c1 [Example E17, 4-amino-2-methyl-5-sulfamoyl-N-(3,4,5-trifluorophenyl)benzamide]
EC50 ([1]; HepAD38, 8-point dose-response, read-out: HBV inh EC50): < 1 µM | EC50 [3]: 0.0498 ± 0.0179 µM | EC50 [4]: 0.0387 ± 0.0111 µM
